These results are taken from patent US6407288B1, “Naphthylsalicylanilides as antimicrobial and antiinflammatory agents” (The Research Foundation of State University of New York, priority 2000, dated 2002).

The subject of assay [1] is staphylococcus species R (strain 00-045-1209). Description: Sensitivity of strain to known antibiotics. The settings on record: sensitive / resistant. Type of assay: cell-based. As to the method:
This embodiment describes the sensitivity of various staphylococcus strains to the compounds of the present invention. The staphylococcus species R is a strain 00-045-1209 from the Children's Hospital in Buffalo. It was isolated from the peritoneal cavity (fluid culture) of an individual. It was coagulase negative. The sensitivity of this strain was tested agaisnt several known antibiotics.

Assay [2] concerns Str.pn.R (strain 00-041-0614). Description: Sensitivity of strain to known antibiotics. The settings on record: sensitive / resistant. The class given is cell-based, Streptococcus. As for the experimental part: This embodiment illustrates the efficacy of the compounds of the present invention against Streptococcus strains. One of the strains, Str.pn.R was obtained from the Children's Hospital in Buffalo (strain 00-041-0614). […] The sensitivity of this strain was tested against several known antibiotics.

Take `CN[C@H](CC(C)C)C(=O)N[C@H]1C(=O)N[C@@H](CC(N)=O)C(=O)N[C@H]2C(=O)N[C@H]3C(=O)N[C@H](C(=O)N[C@H](C(=O)O)c4cc(O)cc(O)c4-c4cc3ccc4O)[C@H](O)c3ccc(c(Cl)c3)Oc3cc2cc(c3O[C@@H]2O[C@H](CO)[C@@H](O)[C@H](O)[C@H]2O[C@H]2C[C@](C)(N)[C@H](O)[C@H](C)O2)Oc2ccc(cc2Cl)[C@H]1O` [Vancomycin]: in assay [1], the “sensitivity of staphylococcus species R to known antibiotics” value is “sensitive”. Further, the “sensitivity of strain Str.pn.R to known antibiotics” value in assay [2] is given as “sensitive”.
For the compound `CC[C@H]1OC(=O)[C@H](C)[C@@H](O[C@H]2C[C@@](C)(OC)[C@@H](O)[C@H](C)O2)[C@H](C)[C@@H](O[C@@H]2O[C@H](C)C[C@H](N(C)C)[C@H]2O)[C@](C)(O)C[C@@H](C)C(=O)[C@H](C)[C@@H](O)[C@]1(C)O` [erythromycin], the “sensitivity of staphylococcus species R to known antibiotics” value in assay [1] is “resistant”. Moreover, in assay [2], the “sensitivity of strain Str.pn.R to known antibiotics” value is given as “resistant”.
